Test results reported in ChEMBL document CHEMBL4616663, “Resorcylic Acid Lactones from an Ilyonectria sp” (J Nat Prod, 2020).
Activity calls are given as the source filed them. The calls are words filed in the database; no cut-off is given here.

What was measured:
[1] = system: 769-P; assay: Cytotoxicity against human 769-P cells at 50 uM by MTT assay; format: functional, cell-based
[2] = system: A549; assay: Cytotoxicity against human A549 cells at 50 uM by MTT assay; format: functional, cell-based
[3] = system: T-cell; assay: Immunosuppressive activity in BALB/c mouse T cells assessed as reduction in ConA-induced cell proliferation; format: functional, cell-based
[4] = system: HCT-116; assay: Cytotoxicity against human HCT116 cells at 50 uM by MTT assay; format: functional, cell-based
[5] = system: B-cell line; assay: Immunosuppressive activity in BALB/c mouse B cells assessed as reduction in LPS-induced cell proliferation; format: functional, cell-based
[6] = system: A549; assay: Cytotoxicity against TRAIL-resistant human A549 cells assessed as reduction in cell viability at 50 uM cotreated with TRAIL after 24 hrs by MTT assay relative to compound alone; format: functional
[7] = system: A549; assay: Cytotoxicity against TRAIL-resistant human A549 cells assessed as reduction in cell viability at 30 uM cotreated with TRAIL after 24 hrs by MTT assay relative to compound alone; format: functional
[8] = system: A549; assay: Cytotoxicity against TRAIL-resistant human A549 cells assessed as reduction in cell viability at 15 uM cotreated with TRAIL after 24 hrs by MTT assay relative to compound alone; format: functional

C[C@@H]1C[C@@H](O)/C=C\CCCC(=O)Cc2c(Cl)c(O)cc(O)c2C(=O)O1
Activity [1]: inactive
Activity [2]: inactive
IC50 [3]: > 25 µM
Activity [4]: inactive
IC50 [5]: 21.9 µM

C[C@@H]1C/C=C/C(=O)CCCC(=O)Cc2cc(O)cc(O)c2C(=O)O1
Activity [1]: inactive
Activity [2]: inactive
IC50 [3]: > 25 µM
Activity [4]: inactive
IC50 [5]: 18.5 µM

C[C@@H]1C/C=C/CCCC[C@@H](O)CC(=O)Cc2c(Cl)c(O)cc(O)c2C(=O)O1
Activity [1]: inactive
Activity [2]: inactive
IC50 [3]: > 25 µM
Activity [4]: inactive
Activity [6]: 26%
IC50 [5]: > 25 µM

C[C@H]1OC(=O)c2c(O)cc(O)c(Cl)c2/C=C/CC/C=C/[C@@H]1O
Activity [1]: inactive
Activity [2]: inactive
IC50 [3]: > 25 µM
Activity [4]: inactive
IC50 [5]: > 25 µM

CO[C@@H]1C=CC=C2Cc3c(Cl)c(O)cc(O)c3C(=O)O[C@H](C)C[C@@H](O)[C@H]1O2
Activity [1]: inactive
Activity [2]: inactive
IC50 [3]: > 25 µM
Activity [4]: inactive
IC50 [5]: 5.5 µM

C[C@@H]1C[C@@H](O)[C@@H]2CC[C@H](CC(=O)Cc3cc(O)cc(O)c3C(=O)O1)O2
Activity [1]: inactive
Activity [2]: inactive
IC50 [3]: > 25 µM
Activity [4]: inactive
IC50 [5]: > 25 µM

C[C@@H]1CC[C@H](O)C(=O)CCCC(=O)Cc2c(Cl)c(O)cc(O)c2C(=O)O1
Activity [1]: inactive
Activity [2]: inactive
IC50 [3]: > 25 µM
Activity [4]: inactive
IC50 [5]: > 25 µM

C[C@H]1OC(=O)c2c(O)cc(O)cc2CC(=O)CCCC/C=C/[C@@H]1O
Activity [1]: inactive
Activity [2]: inactive
IC50 [3]: > 25 µM
Activity [4]: inactive
IC50 [5]: > 25 µM

C[C@@H]1C/C=C/CCCC[C@H](O)CC(=O)Cc2c(Cl)c(O)cc(O)c2C(=O)O1
Activity [1]: inactive
Activity [2]: inactive
IC50 [3]: > 25 µM
Activity [4]: inactive
Activity [6]: 27%
IC50 [5]: > 25 µM

COc1c(C)c2c(c(O)c1C/C=C(\C)CCC(=O)OCCN1CCOCC1)C(=O)OC2 [MYCOPHENOLATE MOFETIL]
IC50 [5]: 3.2 µM

C[C@@H]1CC(=O)CCC/C=C/C(=O)Cc2c(Cl)c(O)cc(O)c2C(=O)O1
Activity [1]: inactive
Activity [2]: inactive
IC50 [3]: > 25 µM
Activity [4]: inactive
IC50 [5]: > 25 µM

C[C@@H]1C[C@@H]2O[C@H]2[C@@H]2O[C@@H]2/C=C/[C@@H](O)CC(=O)Cc2c(Cl)c(O)cc(O)c2C(=O)O1
Activity [1]: inactive
Activity [2]: inactive
IC50 [3]: 1.9 µM
Activity [4]: inactive
IC50 [5]: 1.1 µM

C[C@@H]1C/C=C/CC/C=C/[C@@H](O)CC(=O)Cc2c(Cl)c(O)cc(O)c2C(=O)O1
Activity [7]: 31%
Activity [1]: inactive
Activity [2]: inactive
IC50 [3]: 4.1 µM
Activity [4]: inactive
Activity [6]: 29%
IC50 [5]: 9.8 µM
Activity [8]: 22%
